Measured values published in PubChem BioAssay AID1963978 (Molecular Pharmacology Branch, DTP, NCI, 2024).

Test system: 616215-338-R-J1-PDC spheroids with HUVEC/MSC, viability
Experiment: Anticancer human tumor 616215-338-R-J1-PDC patient-derived colon adenocarcinoma cell line growth inhibition [PI3K]
Details: for IC50: curve of first compound; for viability, T/C: stronger effect = lower value
Summary of the method: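 Three cell types, namely tumor cells, endothelial cells and mesenchymal stem cells, formed each spheroid. Combinations with four PI3K inhibitors were screened at clinically achievable concentrations decreasing by half-log, and spheroid viability was recorded.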

[1] = second compound 0.0316 µM, first compound 0.0316 µM
[2] = second compound 0.0316 µM, first compound 0.1 µM
[3] = second compound 0.0316 µM, first compound 0.316 µM
[4] = second compound 0.0316 µM, first compound 1 µM
[5] = second compound 0.0316 µM, first compound 3.16 µM
[6] = second compound 0.0316 µM, first compound 10 µM
[7] = second compound 0.1 µM, first compound 0.0316 µM
[8] = second compound 0.1 µM, first compound 0.1 µM
[9] = second compound 0.1 µM, first compound 0.316 µM
[10] = second compound 0.1 µM, first compound 1 µM
[11] = second compound 0.1 µM, first compound 3.16 µM
[12] = second compound 0.1 µM, first compound 10 µM
[13] = second compound 0.316 µM, first compound 0.0316 µM
[14] = second compound 0.316 µM, first compound 0.1 µM
[15] = second compound 0.316 µM, first compound 0.316 µM
[16] = second compound 0.316 µM, first compound 1 µM
[17] = second compound 0.316 µM, first compound 3.16 µM
[18] = second compound 0.316 µM, first compound 10 µM
[19] = second compound 1 µM, first compound 0.0316 µM
[20] = second compound 1 µM, first compound 0.1 µM
[21] = second compound 1 µM, first compound 0.316 µM
[22] = second compound 1 µM, first compound 1 µM
[23] = second compound 1 µM, first compound 3.16 µM
[24] = second compound 1 µM, first compound 10 µM
[25] = second compound 3.16 µM, first compound 0.0316 µM
[26] = second compound 3.16 µM, first compound 0.1 µM
[27] = second compound 3.16 µM, first compound 0.316 µM
[28] = second compound 3.16 µM, first compound 1 µM
[29] = second compound 3.16 µM, first compound 3.16 µM
[30] = second compound 3.16 µM, first compound 10 µM
[31] = second compound 10 µM, first compound 0.0316 µM
[32] = second compound 10 µM, first compound 0.1 µM
[33] = second compound 10 µM, first compound 0.316 µM
[34] = second compound 10 µM, first compound 1 µM
[35] = second compound 10 µM, first compound 3.16 µM
[36] = second compound 10 µM, first compound 10 µM
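Also: spheroids exposed to agents for seven days before the viability read.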

For `CC(C)NCC(C(=O)N1CCN(c2ncnc3c2C(C)CC3O)CC1)c1ccc(Cl)cc1` (stereo unspecified) + Cc1nc(NC(=O)N2CCCC2C(N)=O)sc1-c1ccnc(C(C)(C)C(F)(F)F)c1, the IC50 (second compound 0.0316 µM) was 8.82 µM, the IC50 (second compound 0.1 µM) was 8.31 µM and the IC50 (second compound 0.316 µM) was 7.19 µM. The IC50 (second compound 1 µM) was 7.82 µM, the IC50 (second compound 3.16 µM) was 7.42 µM and the IC50 (second compound 10 µM) was 4.35 µM. For the same molecule, the viability, T/C [1] was 97.2%, the viability, T/C [2] was 91.6% and the viability, T/C [3] was 91.8%. For the same molecule, the viability, T/C [4] was 98.3%, the viability, T/C [5] was 91.8% and the viability, T/C [6] was 44.9%. It also gave a viability, T/C [7] of 89.5%, a viability, T/C [8] of 87.4% and a viability, T/C [9] of 92.8%. It also gave a viability, T/C [10] of 105%, a viability, T/C [11] of 90.1% and a viability, T/C [12] of 42%. The viability, T/C [13] was 103%, the viability, T/C [14] was 92.9% and the viability, T/C [15] was 98.7%. It also gave a viability, T/C [16] of 104%, a viability, T/C [17] of 70.8% and a viability, T/C [18] of 41.6%. It also gave a viability, T/C [19] of 98.9%, a viability, T/C [20] of 97.6% and a viability, T/C [21] of 95.6%. The viability, T/C [22] was 101%, the viability, T/C [23] was 84.9% and the viability, T/C [24] was 39.8%. The viability, T/C [25] was 111%, the viability, T/C [26] was 101% and the viability, T/C [27] was 102%. For the same molecule, the viability, T/C [28] was 90.4%, the viability, T/C [29] was 71.4% and the viability, T/C [30] was 42.2%. For the same molecule, the viability, T/C [31] was 96%, the viability, T/C [32] was 95.3% and the viability, T/C [33] was 91.6%. It also gave a viability, T/C [34] of 79.2%, a viability, T/C [35] of 57.8% and a viability, T/C [36] of 30.3%.
In the case of `CCN1CCN(Cc2ccc(Nc3ncc(F)c(-c4cc(F)c5nc(C)n(C(C)C)c5c4)n3)nc2)CC1` + Cc1nc(NC(=O)N2CCCC2C(N)=O)sc1-c1ccnc(C(C)(C)C(F)(F)F)c1, the IC50 (second compound 0.0316 µM) is reported as > 1 µM, the IC50 (second compound 0.1 µM) is reported as > 1 µM and the IC50 (second compound 0.316 µM) is reported as > 1 µM. The IC50 (second compound 1 µM) was > 1 µM, the IC50 (second compound 3.16 µM) was > 1 µM and the IC50 (second compound 10 µM) was > 1 µM. For the same molecule, the viability, T/C (second compound 0.0316 µM, first compound 0.00316 µM) was 94%, the viability, T/C (second compound 0.0316 µM, first compound 0.01 µM) was 90.8% and the viability, T/C [1] was 98.5%. The viability, T/C [2] was 101%, the viability, T/C [3] was 110% and the viability, T/C [4] was 134%. For the same molecule, the viability, T/C (second compound 0.1 µM, first compound 0.00316 µM) was 107%, the viability, T/C (second compound 0.1 µM, first compound 0.01 µM) was 120% and the viability, T/C [7] was 96.9%. It also gave a viability, T/C [8] of 105%, a viability, T/C [9] of 114% and a viability, T/C [10] of 113%. For the same molecule, the viability, T/C (second compound 0.316 µM, first compound 0.00316 µM) was 113%, the viability, T/C (second compound 0.316 µM, first compound 0.01 µM) was 104% and the viability, T/C [13] was 111%. The viability, T/C [14] was 115%, the viability, T/C [15] was 131% and the viability, T/C [16] was 110%. It also gave a viability, T/C (second compound 1 µM, first compound 0.00316 µM) of 92.5%, a viability, T/C (second compound 1 µM, first compound 0.01 µM) of 99% and a viability, T/C [19] of 101%. It also gave a viability, T/C [20] of 108%, a viability, T/C [21] of 120% and a viability, T/C [22] of 83.9%. It also gave a viability, T/C (second compound 3.16 µM, first compound 0.00316 µM) of 96.7%, a viability, T/C (second compound 3.16 µM, first compound 0.01 µM) of 105% and a viability, T/C [25] of 106%. The viability, T/C [26] was 103%, the viability, T/C [27] was 91.9% and the viability, T/C [28] was 84.1%. The viability, T/C (second compound 10 µM, first compound 0.00316 µM) was 91.3%, the viability, T/C (second compound 10 µM, first compound 0.01 µM) was 82.7% and the viability, T/C [31] was 92.3%. The viability, T/C [32] was 74.6%, the viability, T/C [33] was 68.9% and the viability, T/C [34] was 52.1%.
In the case of `Cn1ncc(Cl)c1-c1cc(C(=O)NC(CN)Cc2cccc(F)c2)sc1Cl` (stereo unspecified) + Cc1nc(NC(=O)N2CCCC2C(N)=O)sc1-c1ccnc(C(C)(C)C(F)(F)F)c1, the IC50 (second compound 0.0316 µM) is reported as 6.95 µM, the IC50 (second compound 0.1 µM) is reported as 6.73 µM and the IC50 (second compound 0.316 µM) is reported as 6.48 µM. For the same molecule, the IC50 (second compound 1 µM) was 9.17 µM, the IC50 (second compound 3.16 µM) was 5.85 µM and the IC50 (second compound 10 µM) was 4.01 µM. For the same molecule, the viability, T/C [1] was 96%, the viability, T/C [2] was 93.5% and the viability, T/C [3] was 102%. It also gave a viability, T/C [4] of 91.5%, a viability, T/C [5] of 82.5% and a viability, T/C [6] of 35.2%. The viability, T/C [7] was 102%, the viability, T/C [8] was 95.8% and the viability, T/C [9] was 92.3%. It also gave a viability, T/C [10] of 89%, a viability, T/C [11] of 76.3% and a viability, T/C [12] of 36.4%. The viability, T/C [13] was 99.4%, the viability, T/C [14] was 96% and the viability, T/C [15] was 98.8%. The viability, T/C [16] was 96.8%, the viability, T/C [17] was 67.6% and the viability, T/C [18] was 39.4%. The viability, T/C [19] was 109%, the viability, T/C [20] was 92.9% and the viability, T/C [21] was 106%. It also gave a viability, T/C [22] of 98.4%, a viability, T/C [23] of 73.7% and a viability, T/C [24] of 48.1%. For the same molecule, the viability, T/C [25] was 91.8%, the viability, T/C [26] was 95% and the viability, T/C [27] was 94.1%. For the same molecule, the viability, T/C [28] was 87.7%, the viability, T/C [29] was 70% and the viability, T/C [30] was 32.6%. It also gave a viability, T/C [31] of 89.9%, a viability, T/C [32] of 90.9% and a viability, T/C [33] of 86.3%. The viability, T/C [34] was 70.5%, the viability, T/C [35] was 59.6% and the viability, T/C [36] was 22.8%.
